Measurements from PubChem BioAssay AID540258 (Broad Institute, 2011).
Activity calls are given as the source filed them.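 The calls were made as follows: active = fitted curve reaching 40% activation at or below the top valid dose tested; inconclusive = flat curve at 30 to 70% activation, or poor fit; inactive = the rest.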

System: SK-MEL-5 TRPM1 promoter luciferase reporter, 24 h
Experiment: activation of TRPM1 promoter luciferase in melanoma cells – SK-MEL-5 cells, cherry-pick samples, dose response (AID 540258);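 also: potency for activators that raise TRPM1 promoter luciferase signal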

Row | Compound | AC40
1 | Cc1nc2c3cnn(-c4ccc(C)c(C)c4)c3ncn2n1 | 921 nM
2 | CCSc1nnc(NC(=O)NC2CCCCC2)s1 | > 35000 nM (inactive)
3 | c1ccc(-c2ccc3sccc3n2)cc1 | 1520 nM
4 | Cc1cc(Cl)ccc1OCc1cn2cccnc2n1 | 1410 nM
5 | O=C(N=C1N=C2C=CC=CN2Cc2ccccc21)c1ccc(S(=O)(=O)N2CCCC2)cc1 | 30100 nM
6 | Nc1c(C(=O)N2CCCC2)sc2nc(-c3ccccc3)ccc12 | 6190 nM
7 | Fc1ccc2nc(N3CCCC3)sc2c1 | 1370 nM
8 | Cc1ccc(C2=NN(S(C)(=O)=O)C(c3cccs3)C2)cc1 (stereo unspecified) | 2090 nM
9 | COc1ccccc1OCc1cc(-c2ccccc2)no1 | 2280 nM
10 | Cc1cccc(C(=O)Oc2ccc(/C=N/O)cc2)c1 | 2740 nM
11 | Nc1ccc2oc(=O)c3ccccc3c2c1 | 3190 nM
12 | CCNc1nc(N)nc(Oc2ccc(C(=O)OC)cc2)n1 | 3640 nM
13 | COc1ccc(C)c2sc(=NC(=O)c3ccc(C(C)=O)cc3)n(C)c12 | 119 nM
14 | O=C(Nc1ccc2c(c1)OCO2)c1cc(-c2ccccc2Cl)on1 | 2060 nM
15 | Cn1c(NC(=O)CCC2CCCCC2)cc(=O)n(C)c1=O | 1490 nM
16 | Nc1ccc2cc3ccccc3cc2c1 | 2880 nM
17 | Cc1cccc(-c2nc(C#N)c(NC3CCCCC3)o2)c1 | 1290 nM
18 | O=C(NCCC1=CCCCC1)NC12CC3CC(CC(C3)C1)C2 | 703 nM
19 | CSc1nc(N)n2nc(-c3ccc(Cl)cc3)cc2n1 | 727 nM
20 | Cc1ccc2c(Cl)c(C(=O)Nc3cccnc3)sc2c1 | 1190 nM
21 | C/C(=N/NC(=O)c1ccncc1)c1ccc(NC(=O)c2ccc(Cl)cc2Cl)cc1 | > 35000 nM (inactive)
22 | Cn1cccc1C(=O)C(=O)Nc1ccc(F)c(F)c1 | 855 nM

Row | Compound | AC40
23 | CN(C)C(CNC(=O)c1cc2ccccc2oc1=O)c1ccccc1 (stereo unspecified) | 5720 nM
24 | CS(=O)(=O)N1CCc2cc(C(=O)Nc3ccccc3Br)ccc21 | 4960 nM
25 | O=C(c1cc(COc2ccc(F)cc2Cl)on1)N1CCCCCC1 | 1660 nM
26 | Cn1c(SCc2c(F)cccc2Cl)nnc1-c1cnccn1 | 6160 nM
27 | CN(C)c1ccc(/C=C/c2cccc[n+]2[O-])cc1 | 14300 nM
28 | Cc1ccc(C(=O)Cn2nnc3ccccc32)cc1C | 858 nM
29 | COc1cccc(NC(=O)Nc2ccc3c(c2)nnn3C)c1 | 4880 nM
30 | Cc1nnc(NC(=O)c2ccc(N3CCCC3=O)cc2)s1 | > 35000 nM (inactive)
31 | COc1ccc(-c2ccc(C(=O)C3CC3)cc2)cc1 | 775 nM
32 | CCN(CC)CC(=O)Nc1scc2c1c(=O)oc1ccccc12 | 6270 nM
33 | Cc1nc(NC(C)C)c2cnn(CCc3ccccc3)c2n1 | 7110 nM
34 | c1ccc(COc2ccc(-c3csnn3)cc2)cc1 | 889 nM
35 | Cc1cc(C(=O)Cn2nc(C(=O)O)c3ccccc3c2=O)c(C)n1CC(F)(F)F | 9430 nM
36 | O=C1c2ccccc2NC(c2cccc(Cl)c2)N1N=C1CCCCCC1 (stereo unspecified) | > 35000 nM (inactive)
37 | O=c1c(-c2nc3ccccc3s2)cccn1Cc1ccccc1 | 945 nM
38 | CCn1c(/C=C/c2c[nH]c3ccccc23)nc2ccccc2c1=O | 583 nM
39 | COC(=O)c1ccc(N2CCN(c3ccccc3)CC2)nc1 | 3850 nM
40 | O=C(Nc1ccc2oc(-c3ccccc3)nc2c1)c1cccnc1 | 5220 nM
41 | COc1ccc(C(=O)NN/C(=N/S(=O)(=O)c2ccc(C)cc2)c2ccccc2)cc1 | 1480 nM
42 | COc1cc(C=O)ccc1OCc1cccc(Br)c1 | 5930 nM
43 | C#CCSc1nnc(-c2ccc(O)cc2)o1 | 9520 nM
44 | O=C(OCc1csc(-c2ccccc2)n1)c1ccc(O)cc1 | 7950 nM

Row | Compound | AC40
45 | CC(C)(C)c1ccc(SCCc2ccccn2)cc1 | 1980 nM
46 | Cc1ccc(/C=N/Nc2ccc(Cl)nn2)cc1 | 1930 nM
47 | CCc1nc2oc3ccccc3c(=O)c2cc1C(=O)OC | 5700 nM
48 | N#Cc1ccc(NC(=O)c2cccs2)nc1 | 16800 nM
49 | COc1ccccc1N1CCN(C2=Nc3cccc4cccc2c34)CC1 | 3000 nM
50 | CCCC(=O)Nc1ccc(C#Cc2ccccc2)cc1 | 1630 nM
51 | CN(CC(=O)Nc1ccccc1Br)C(=O)c1cc2c(s1)CCCCC2 | 3400 nM
52 | CCc1ccc(OC(=O)Nc2ccccc2)cc1 | 469 nM
53 | CC1CCN(C(=O)c2cc(-c3ccccc3O)on2)CC1 | 383 nM
54 | Cc1csc(NC(=O)Cc2c[nH]c3ccccc23)n1 | 27300 nM
55 | COc1ccc(N=C(C)c2sc3ccccc3c2O)cc1 | 1820 nM
56 | CSCc1ccc(C(=O)Nc2cc(C)cc(C)c2)cc1 | 2810 nM
57 | Cc1ccc(-n2nc3ccc(NC(=O)C(C)C)cc3n2)cc1 | 555 nM
58 | Clc1ccc(SCc2cn3ccccc3n2)cc1 | 2690 nM
59 | C/C(=C\c1ccc(N)cc1)c1nc2ccccc2[nH]1 | 1720 nM
60 | COc1cccc(C(=O)Nc2nnc(-c3ccccc3)s2)c1 | 3570 nM
61 | COc1ccc(-c2cn(CC3CCCCC3)nn2)cc1 | 3610 nM
62 | Nc1c(-c2ccc(Cl)cc2)cnn1-c1ccccc1 | 1840 nM
63 | CC1CCc2nc(NC(=O)Cc3cccs3)sc2C1 (stereo unspecified) | 2630 nM
64 | Cc1ccc(Nc2ncnc3ccccc23)cc1 | 2230 nM
65 | CC1CCCC(C)N1C(=O)c1cc(-c2ccc3c(c2)OCO3)on1 (stereo unspecified) | 1250 nM
66 | ClCCn1cnc2c(SCc3ccccc3)ncnc21 | 3640 nM
